Common to all, as to test: DTP human tumour cell line panel, 48 h
For assay [1], the system named is KM20L2 colon.
For assay [2], the system named is OVCAR-4 ovarian.
For assay [3], the system named is DMS 114 small cell lung.
Assay [4] relates to M19-MEL melanoma.
The test system of assay [5] is U251 CNS.
For assay [6], the system named is NCI-H460 lung.
The subject of assay [7] is KM12 colon.
Assay [8] deals with HCC-2998 colon.
In assay [9] the test system is OVCAR-3 ovarian.
The subject of assay [10] is MDA-MB-231 breast.

Values joined by “and” are separate entries in the source; they are usually repeats but may differ in a detail not shown here. Equal entries are not always repeated.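 Five concentrations, 48 hours, 96-well plates. GI50 = concentration required for 50% inhibition of growth. TGI is the concentration that stops growth completely.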

A word on the TGI: it is the concentration giving total growth inhibition. High values mean lower sensitivity of the cells, low ones greater sensitivity of the cells. The term GI50 denotes the concentration giving 50% growth inhibition.

Consider `C/C(=N\NS(=O)(=O)c1ccccc1)c1ccc[n+]([O-])n1`, for which the concentration for total growth inhibition (TGI) in [1], in assay [2], in assay [3], in assay [4], in assay [5] and in assay [6] was > 100 µM throughout. For the same compound, the TGI in assay [7], in assay [8] and in assay [9] was > 100 µM in each case.

As to `C=C1CC(CC(=O)C(C)CC2CC(=C)C(=O)O2)OC1=O` (centres undefined), the TGI in [1] was > 100 µM; in assay [2] it was 30.5 µM; in [3] it was 39 µM; in assay [4], 30.3 µM; in assay [5], > 100 µM; in assay [6] it was > 100 µM. In addition, the values for the TGI in [7], in [8] and in assay [9] were 22.6 µM, > 100 µM and 37 µM, respectively.

Take `Cc1ccc(SSCCCCS(=O)O)cc1`: the TGI in [1] is 46.9 µM; in assay [2], 32 µM; in [3] it was 41.9 µM; in assay [4], 64.5 µM; in assay [5], 39.2 µM; in assay [6], > 100 µM. The TGI turned out to be 52.3 µM in [7], 66.3 µM in [8] and 67.7 µM in [9].

On to `CCCCCCC(=O)CC(=O)C(=O)Nc1ccccc1C`, for which the total growth inhibition concentration (TGI) in assay [1] is > 100 µM; in assay [2], > 100 µM; in assay [3], > 100 µM; in assay [4], > 100 µM; in [5], > 100 µM; in [6] it was > 81.2 µM. The total growth inhibition concentration (TGI) in assay [7], in [8] and in [9] was > 100 µM each time.

For `Cc1c(C(=O)Nc2ccc(Cl)cc2)nc(N)nc1-c1cccc(Cl)c1`, the TGI in assay [1], in assay [2], in [3], in [4], in assay [5] and in [6] was > 100 µM throughout. The TGI in [7], in assay [8] and in assay [9] was > 100 µM each time.

For `CC1=C(C(=O)NCc2ccccc2)C(c2ccccc2O)C(C(=O)NCc2ccccc2)=C(C)N1`, the TGI in assay [1] came to 37 µM; in [2] it was 35.4 µM; in [3] it was 35.7 µM; in assay [4], 35.7 µM; in [5], 29.5 µM; in assay [6], 39.2 µM. Further, the TGI in assay [7] was found to be 31.5 µM; in assay [8], 35.9 µM; in [9], 31.9 µM.

For the compound `CC(=O)Nc1ccccc1S(=O)c1ccccc1` (centres undefined), the total growth inhibition concentration (TGI) in [1], in assay [2], in [3], in assay [4], in assay [5] and in assay [6] was > 100 µM throughout. Besides, the concentration for total growth inhibition (TGI) in [7], in assay [8] and in assay [9] was > 100 µM each time.

Take `NC(C(=O)O)c1ccc(C(=O)O)cc1` (centres undefined): the concentration for total growth inhibition (TGI) in assay [1], in assay [2], in [3], in [4], in [5] and in [6] was > 100 µM throughout. Besides, the TGI in [7], in [8] and in [9] was > 100 µM in each case.

Consider `CN(C)c1ccc(/C=c2\sc3nnc(Cc4ccccc4)n3c2=O)cc1`, for which the GI50 in assay [1] was > 100 µM; in assay [2] it was > 100 µM; in [3], > 10 µM; in assay [5], > 100 µM; in assay [6], > 100 µM; in assay [7], > 100 µM. In addition, the GI50 in assay [9] was > 100 µM. For the same compound, the TGI in assay [1] was > 100 µM; in assay [2], > 100 µM; in [3], > 10 µM and 33.8 µM; in assay [4], > 100 µM; in assay [5], > 100 µM; in [6] it was > 100 µM. Also, the TGI in assay [7], in assay [8] and in assay [9] was > 100 µM in each case.

For the compound `CCOC(=O)C1C(=O)c2cccc(OC)c2C2COC(=O)N12` (centres undefined), the TGI in [1], in assay [2], in [3], in assay [4], in assay [5] and in assay [6] was > 100 µM each time. Moreover, the total growth inhibition concentration (TGI) in assay [7], in [8] and in assay [9] was > 100 µM each time.

Take `CC(=O)N1CCN(C=S)CC1`: the total growth inhibition concentration (TGI) in assay [1], in assay [2], in [3], in assay [4], in assay [5] and in assay [6] was > 100 µM in each case. For the same compound, the TGI in [7], in assay [8] and in assay [9] was > 100 µM throughout.

Regarding `COc1c(OC2OC(CO)C(O)C(O)C2O)cc2c(c1OC)-c1ccc(OC)c(=O)cc1[C@@H](NC(C)=O)CC2` (some centres undefined), the TGI in assay [1] was > 100 µM; in [2] it was > 100 µM; in assay [3], > 97 µM; in assay [4], > 100 µM; in assay [5] it was > 100 µM; in [6] it was > 100 µM. Also, the total growth inhibition concentration (TGI) is > 100 µM in [7], > 100 µM in assay [8] and > 96.6 µM in assay [9].

On to `O=C1OC(=O)C2C1C1C(c3ccccc3)=C(c3ccccc3)C2(O)C2C(=O)OC(=O)C12` (centres undefined), for which the concentration for total growth inhibition (TGI) in assay [1], in [2], in assay [3], in assay [4], in assay [5] and in assay [6] was > 100 µM in each case. In addition, the TGI in assay [7], in [8] and in assay [9] was > 100 µM in each case.

Take `N#CC12CC3(CCC1CCC1(C2)OCCO1)OCCO3` (centres undefined): the total growth inhibition concentration (TGI) in assay [1], in assay [2], in assay [3], in assay [4], in [5] and in assay [6] was > 100 µM in each case. For the same compound, the TGI in assay [7], in assay [8] and in assay [9] was > 100 µM in each case.

As for `CCc1cccc(CC)c1NC(=O)C1=CNC(C)=C(C(=O)Nc2c(CC)cccc2CC)C1c1ccc(O)c(OC)c1` (centres undefined), the total growth inhibition concentration (TGI) in assay [1] is > 100 µM; in [2], 91.4 µM; in assay [3] it was > 100 µM; in [4] it was > 100 µM; in assay [5], > 100 µM; in assay [6] it was 98.8 µM. Further, the TGI in assay [7] came to 87.4 µM; in assay [8] it was 88.8 µM; in assay [9], 53.9 µM.

As for `CCCCCCCCC(=O)NCCN(CCN)C(=O)CCCCCCCC`, the TGI in assay [1] was found to be 9.55 µM; in assay [2], 16.2 µM; in [3] it was 10.1 µM; in assay [4] it was 10.6 µM; in [5], 9.26 µM; in [6], 19.7 µM. Besides, the TGI came to 6.01 µM in [7], 24.3 µM in [8], 10.3 µM in assay [10] and 30.9 µM in assay [9].

As for `OCC(O)C(OC1OC(CO)C(O)C(O)C1O)c1nn(-c2ccc(Cl)cc2)c2nc3cc(Cl)ccc3nc12` (centres undefined), the TGI in assay [1], in assay [2], in [3], in assay [4], in [5] and in [6] was > 100 µM each time. In addition, the concentration for total growth inhibition (TGI) in [7], in assay [8] and in assay [9] was > 100 µM each time.

In the case of `ClCCCN1CCCCC1CCl` (centres undefined), the TGI in [1], in assay [2], in assay [3], in [4], in [5] and in assay [6] was > 100 µM each time. The concentration for total growth inhibition (TGI) in [7], in assay [8] and in [9] was > 100 µM each time.

`CC(=O)CC(=O)ON(C)C(=O)Cc1ccccc1`: the concentration for total growth inhibition (TGI) in assay [1], in assay [2], in assay [3], in assay [4], in assay [5] and in assay [6] was > 100 µM in each case. Further, the TGI in [7], in assay [8] and in [9] was > 100 µM each time.

The record behind these values is PubChem BioAssay (NCI).
